Usually IC50 stands for the concentration at which inhibition is half-maximal. Lower therefore signals greater potency.

T1 sequence (P23687 whole entry): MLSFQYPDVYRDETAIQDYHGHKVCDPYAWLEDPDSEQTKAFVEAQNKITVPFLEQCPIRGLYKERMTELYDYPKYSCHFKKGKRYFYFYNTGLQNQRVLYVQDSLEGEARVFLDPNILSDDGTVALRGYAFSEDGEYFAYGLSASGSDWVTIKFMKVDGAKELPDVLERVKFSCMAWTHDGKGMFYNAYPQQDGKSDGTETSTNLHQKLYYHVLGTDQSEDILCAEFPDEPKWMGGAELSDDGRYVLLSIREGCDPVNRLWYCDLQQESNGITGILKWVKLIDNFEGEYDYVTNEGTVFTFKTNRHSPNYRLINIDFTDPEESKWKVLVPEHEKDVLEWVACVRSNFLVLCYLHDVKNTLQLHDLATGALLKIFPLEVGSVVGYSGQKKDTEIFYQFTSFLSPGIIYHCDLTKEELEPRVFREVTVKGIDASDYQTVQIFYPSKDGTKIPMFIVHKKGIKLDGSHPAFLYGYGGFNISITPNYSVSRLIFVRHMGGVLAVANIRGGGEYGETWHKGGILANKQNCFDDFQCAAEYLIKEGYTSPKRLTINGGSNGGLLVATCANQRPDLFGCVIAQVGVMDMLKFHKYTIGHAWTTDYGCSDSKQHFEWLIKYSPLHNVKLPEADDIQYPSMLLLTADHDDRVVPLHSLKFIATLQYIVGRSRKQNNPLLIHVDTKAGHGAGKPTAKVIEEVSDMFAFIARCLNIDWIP

The first assay concerns the target T1, prolyl endopeptidase (Sus scrofa, UniProt P23687).
T1 construct: swine kidney-derived prolyl endopeptidase; from tissue; host or cells: swine kidney
Description: Enzyme inhibitory action on swine kidney-derived prolyl endopeptidase (Z-Gly-Pro-β-naphthylamide substrate). The class given is biochemical. As to conditions: in vitro, qualitative statement. The method, then:
Using 0.1 mM of benzyolxycarbonylglycylproline-β-naphthylamide as substrate and swine kidney-derived prolyl endopeptidase as enzyme, the enzyme was acted on the substrate at 37° C. for 30 minutes in 0.025 M Tris(hydroxymethyl)methane amine-hydrochloric acid (pH 7.5) solution. Fast Garnet was added to form a color and absorbance was measured at 525 nm. The inhibitory activity is expressed in terms of concentration required for 50% inhibition (IC50).
On to `O=C(NC1CCCCCCC1)C(=O)C1CCCN1C(=O)C(Cc1ccccc1)NC(=O)c1cccc(Oc2ccccc2)c1` (stereo not drawn) [Example 113, N-Cyclooctyl-2-oxo-2-[2-(1-(N-(3-phenoxybenzoyl)phenylalanyl)pyrrolidinyl)]acetamide], for which the “prolyl endopeptidase inhibition activity (in words)” value is recorded as “potent inhibition activity on almost the same level”.

As to `O=C(NC1CCCCC1)C(=O)C1CCCN1C(=O)C(Cc1ccccc1)NC(=O)c1cccc(Oc2ccccc2)c1` (stereo not drawn) [Example 28, N-Cyclohexyl-2-oxo-2-[2-(1-(N-(3-phenoxybenzoyl)phenylalanyl)pyrrolidinyl)]acetamide], the “prolyl endopeptidase inhibition activity (in words)” value is listed as “potent inhibition activity on almost the same level”.

As to `O=C(NC1CCCCCC1)C(=O)C1CCCN1C(=O)C(Cc1ccccc1)NC(=O)c1cccc(Oc2ccccc2)c1` (stereo not drawn) [Example 41, N-Cycloheptyl-2-oxo-2-[2-(1-(N-(3-phenoxybenzoyl)-phenylalanyl)pyrrolidinyl)]acetamide], the “prolyl endopeptidase inhibition activity (in words)” value is on record as “potent inhibition activity on almost the same level”.

The same assay, now with this note: swine kidney prolyl endopeptidase, 0.1 mM substrate, 37° C., 30 minutes, pH 7.5.
Turning to `CC(C)C(NC(=O)c1ccc2ccccc2n1)C(=O)N1CCCC1C(=O)C(=O)NC1CCCCC1` (stereo not drawn) [Example 9, N-Cyclohexyl-2-oxo-2-[2-(1-(N-(2-quinolinecarbonyl)valyl)pyrrolidinyl)]acetamide], half-maximal inhibition (IC50) required 1.34 nM.

Regarding `O=C(CCC1CCCCC1)NC(Cc1ccccc1)C(=O)N1CCCC1C(=O)C(=O)NC1CCCCC1` (stereo not drawn) [Example 33, N-Cyclohexyl-2-oxo-2-[2-(1-(N-(3-cyclohexylpropionyl)-phenylalanyl)pyrrolidinyl)]acetamide], the midpoint of inhibition, the IC50, lay at 0.981 nM. This IC50 and that of the molecule before are within 1.5-fold of each other.

As for `O=C(NC1CCCCCCC1)C(=O)C1CCCN1C(=O)C(Cc1ccccc1)NC(=O)c1cccc(Oc2ccccc2)c1` (stereo not drawn) [Example 113, N-Cyclooctyl-2-oxo-2-[2-(1-(N-(3-phenoxybenzoyl)phenylalanyl)pyrrolidinyl)]acetamide], the IC50 is 1.59 nM.

In the case of `O=C(NC1CCCCC1)C(=O)C1CCCN1C(=O)c1ccccn1` (stereo not drawn) [Example 74, N-Cyclohexyl-2-oxo-2-[2-(1-(2-pyridylcarbonyl)pyrrolidinyl)]acetamide], the concentration for half-maximal inhibition (IC50) is 97.1 nM.

With `O=C(NC1CCCCC1)C(=O)C1CCCN1C(=O)C(Cc1ccccc1)NC(=O)c1ccc2ccccc2n1` (stereo not drawn) [Example 115, N-Cyclohexyl-2-oxo-2-[2-(1-(N-(2-quinolylcarbonyl)phenylalanyl)pyrrolidinyl)]acetamide], inhibition was half-maximal at 2.09 nM (IC50).

In turn, `O=C(NC1CCCCC1)C(=O)C1CCCN1C(=O)C(Cc1ccccc1)NC(=O)c1ccccc1` (stereo not drawn) [Example 43, N-Cyclohexyl-2-oxo-2-[2-(1-(N-benzoylphenylalanyl)pyrrolidinyl)]acetamide] showed an IC50 of 1.89 nM.

Turning to `O=C(NC(Cc1ccccc1)C(=O)N1CCCC1C(=O)C(=O)NC1CCCCC1)OCc1ccccc1` (stereo not drawn) [Example 45, N-Cyclohexyl-2-oxo-2-[2-(1-(N-benzyloxycarbonylphenylalanyl)pyrrolidinyl)]acetamide], the half-inhibitory concentration (IC50) is 2.37 nM. This IC50 and that of the molecule before are within 1.5-fold of each other.

For the molecule `O=C(NC1CCCCC1)C(=O)C1CCCN1C(=O)c1ccc2ccccc2n1` (stereo not drawn) [Example 66, N-Cyclohexyl-2-oxo-2-[2-(1-(2-quinolylcarbonyl)pyrrolidinyl)]acetamide], half-maximal inhibition (IC50) required 26.4 nM. Compared with the last molecule, the IC50 is about 11-fold higher.

With `O=C(NC1CCCCC1)C(=O)C1CCCN1C(=O)C(CC1CCCCC1)NC(=O)c1ccc2ccccc2n1` (stereo not drawn) [Example 124, N-Cyclohexyl-2-oxo-2-[2-(1-(N-(2-quinolylcarbonyl)-β-cyclohexylalanyl)pyrrolidinyl)]acetamide], the IC50 is 3.75 nM. Compared with the last molecule, the IC50 is about 7-fold lower.

In turn, `CC(C)C(NC(=O)c1cccc(Oc2ccccc2)c1)C(=O)N1CCCC1C(=O)C(=O)NC1CCCCC1` (stereo not drawn) [Example 7, N-cyclohexyl-2-oxo-2-[2-(1-(N-(3-phenoxybenzoyl)valyl)pyrrolidinyl)]acetamide] gave an IC50 of 0.962 nM.

`O=C(NC1CCCCC1)C(=O)C1CCCN1C(=O)C(Cc1ccccc1)NC(=O)c1cccs1` (stereo not drawn) [Example 18, N-Cyclohexyl-2-oxo-2-[2-(1-(N-(2-thenoyl)phenylalanyl)pyrrolidinyl)]acetamide] had an IC50 of 2.28 nM. This IC50 lies about 2.4-fold higher than the previous one.

`O=C(C=Cc1ccco1)NC(Cc1ccccc1)C(=O)N1CCCC1C(=O)C(=O)NC1CCCCC1` (stereo not drawn) [Example 31, N-Cyclohexyl-2-oxo-2-[2-(1-(N-(3-(2-furyl)acryloyl)-phenylalanyl)pyrrolidinyl)]acetamide] showed an IC50 of 6.31 nM.

Molecule `O=C(NCCc1ccccn1)C(=O)C1CCCN1C(=O)c1ccc(Cl)cc1` (stereo not drawn) [Example 97, N-(2-(2-Pyridyl)ethyl)-2-oxo-2-[2-(1-(4-chlorobenzoyl)pyrrolidinyl)]acetamide] showed an IC50 of 90.7 nM.

`O=C(COc1ccccc1)NC(Cc1ccccc1)C(=O)N1CCCC1C(=O)C(=O)NC1CCCCC1` (stereo not drawn) [Example 20, N-Cyclohexyl-2-oxo-2-[2-(1-(N-phenoxyacetylphenylalanyl)pyrrolidinyl)]acetamide] had an IC50 of 1.58 nM.

Molecule `O=C(NCCN1CCOCC1)C(=O)C1CCCN1C(=O)c1ccc(Cl)cc1` (stereo not drawn) [Example 95, N-(2-Morpholinoethyl)-2-oxo-2-[2-(1-(4-chlorobenzoyl)-pyrrolidinyl)]acetamide] gave an IC50 of 168 nM. Against the preceding molecule, the IC50 is about 110-fold higher.

Molecule `O=C(NC1CCCCC1)C(=O)C1CCCN1C(=O)C(Cc1ccccc1)NC(=O)c1cccc(Oc2ccccc2)c1` (stereo not drawn) [Example 28, N-Cyclohexyl-2-oxo-2-[2-(1-(N-(3-phenoxybenzoyl)phenylalanyl)pyrrolidinyl)]acetamide] gave a half-inhibitory concentration (IC50) of 1.14 nM.

As for `O=C(NC1CCCCCC1)C(=O)C1CCCN1C(=O)C(Cc1ccccc1)NC(=O)c1cccc(Oc2ccccc2)c1` (stereo not drawn) [Example 41, N-Cycloheptyl-2-oxo-2-[2-(1-(N-(3-phenoxybenzoyl)-phenylalanyl)pyrrolidinyl)]acetamide], the IC50 is 1.38 nM. This IC50 and that of the molecule before are within 1.5-fold of each other.

In turn, `CC(C)(C)OC(=O)NC(Cc1ccccc1)C(=O)N1CCCC1C(=O)C(=O)NC1CCCCC1` (stereo not drawn) [Example 15, N-Cyclohexyl-2-oxo-2-[2-(1-(N-t-butoxycarbonylphenylalanyl)pyrrolidinyl)]acetamide] gave an IC50 of 3.18 nM.

Take `CC(C)C(NC(=O)OCc1ccccc1)C(=O)N1CCCC1C(=O)C(=O)NC1CCCCC1` (stereo not drawn) [Example 4, N-cyclohexyl-2-oxo-2-[2-(1-(N-benzyloxycarbonylvalyl)pyrrolidinyl)]acetamide]: the IC50 was 1.09 nM.

In turn, `CC(C)(C)OC(=O)N1c2ccccc2CC1C(=O)N1CCCC1C(=O)C(=O)NC1CCCCC1` (stereo not drawn) [Example 126, N-Cyclohexyl-2-oxo-2-[2-(1-(1-t-butoxycarbonyl-2,3-dihydroindole-2-carbonyl)pyrrolidinyl)]acetamide] gave an IC50 of 1.7 nM.

Take `O=C(NC1CCCCC1)C(=O)C1CCCN1C(=O)C(Cc1ccccc1)NC(=O)c1cccnc1` (stereo not drawn) [Example 53, N-Cyclohexyl-2-oxo-2-[2-(1-(N-(nicotinonyl)phenylalanyl)pyrrolidinyl)]acetamide]: the IC50 was 4.2 nM.

Consider `O=C(NC1CCCCC1)C(=O)C1CCCN1C(=O)c1cccc(Oc2ccccc2)c1` (stereo not drawn) [Example 76, N-Cyclohexyl-2-oxo-2-[2-(1-(3-phenoxybenzoyl)pyrrolidinyl)]acetamide], for which the IC50 was 13.8 nM.

As to `O=C(NC1CCCCC1)C(=O)C1CCCN1C(=O)C(Cc1ccccc1)NC(=O)c1ccncc1` (stereo not drawn) [Example 49, N-Cyclohexyl-2-oxo-2-[2-(1-(N-(isonicotinonyl)-phenylalanyl)pyrrolidinyl)]acetamide], the concentration for half-maximal inhibition (IC50) was 6.5 nM.

The molecule `O=C(CSc1ccncc1)NC(Cc1ccccc1)C(=O)N1CCCC1C(=O)C(=O)NC1CCCCC1` (stereo not drawn) [Example 51, N-Cyclohexyl-2-oxo-2-[2-(1-(N-(4-pyridylthioacetyl)-phenylalanyl)pyrrolidinyl)]acetamide] gave an IC50 of 2.68 nM.

Molecule `O=C(NC1CCCCC1)C(=O)C1CCCN1C(=O)C(Cc1ccccc1)NC(=O)c1ccc2ccccc2c1` (stereo not drawn) [Example 22, N-Cyclohexyl-2-oxo-2-[2-(1-(N-(2-naphthoyl)phenylalanyl)pyrrolidinyl)]acetamide] gave an IC50 of 3.23 nM.

As to `O=C(Cc1ccccn1)NC(Cc1ccccc1)C(=O)N1CCCC1C(=O)C(=O)NC1CCCCC1` (stereo not drawn) [Example 24, N-Cyclohexyl-2-oxo-2-[2-(1-(N-(2-pyridyl)acetylphenylalanyl)pyrrolidinyl)]acetamide], the half-maximal inhibitory concentration (IC50) was 2.24 nM.

For `O=C(NC1CCCCC1)C(=O)C1CCCN1C(=O)c1ccc(CN2CCCCC2)cc1` (stereo not drawn) [Example 86, N-Cyclohexyl-2-oxo-2-[2-(1-(4-piperidinomethylbenzoyl)pyrrolidinyl)]acetamide], half-maximal inhibition (IC50) was put at 82.2 nM.

Consider `O=C(NC1CCCCC1)C(=O)C1CCCN1C(=O)CN(Cc1ccccc1)C(=O)c1ccncc1` (stereo not drawn) [Example 60, N-Cyclohexyl-2-oxo-2-[2-(1-(N-isonicotinonyl-N-benzylglycyl)pyrrolidinyl)]acetamide], for which the concentration for half-maximal inhibition (IC50) is 8.81 nM.

Turning to `O=C(NC1CCCCC1)C(=O)C1CCCN1C(=O)C1CCCN1C(=O)CSc1ccncc1` (stereo not drawn) [Example 55, N-Cyclohexyl-2-oxo-2-[2-(1-(N-(4-pyridylthioacetyl)prolyl)pyrrolidinyl)]acetamide], the IC50 was 1.69 nM. Compared with the last molecule, the IC50 is about 5.2-fold lower.

For `O=C(NC1CCCCC1)C(=O)C1CCCN1C(=O)C=Cc1cccnc1` (stereo not drawn) [Example 72, N-Cyclohexyl-2-oxo-2-[2-(1-(3-(3-pyridyl)acryloyl)pyrrolidinyl)]acetamide], the midpoint of inhibition, the IC50, lay at 239 nM.

`O=C(NC1CCCCC1)C(=O)C1CCCN1C(=O)[C@H](Cc1ccccc1)NC(=O)c1ccc(CN2CCOCC2)cc1` (stereo partly drawn) [Example 57, N-Cyclohexyl-2-oxo-2-[2-(1-(N-(4-morpholinomethylbenzoyl)phenylalanyl)pyrrolidinyl)]acetamide]: the IC50 was 9.4 nM.

As for `CC(=O)NC(Cc1ccccc1)C(=O)N1CCCC1C(=O)C(=O)NC1CCCCC1` (stereo not drawn) [Example 118, N-Cyclohexyl-2-oxo-2-[2-(1-(N-acetylphenylalanyl)pyrrolidinyl)]acetamide], the IC50 was 2.03 nM. Compared with the last molecule, the IC50 is about 4.6-fold lower.

Regarding `O=C(NC1CCCCCC1)C(=O)C1CCCN1C(=O)c1ccc2ccccc2c1` (stereo not drawn) [Example 78, N-Cycloheptyl-2-oxo-2-[2-(1-(2-naphthoyl)pyrrolidinyl)]acetamide], the 50% inhibitory concentration (IC50) is 23.4 nM. This IC50 is about 12-fold higher than that of the molecule before.

Take `O=C(NCc1nc2ccccc2[nH]1)C(=O)C1CCCN1C(=O)c1ccc(Cl)cc1` (stereo not drawn) [Example 93, N-(2-Benzimidazolylmethyl)-2-oxo-2-[2-(1-(4-chlorobenzoyl)pyrrolidinyl)]acetamide]: inhibition was half-maximal at 134 nM (IC50).

Molecule `O=C(NC1CCCCC1)C(=O)C1CCCN1C(=O)C=Cc1ccccc1` (stereo not drawn) [Example 68, N-Cyclohexyl-2-oxo-2-[2-(1-cinnamoylpyrrolidinyl)]acetamide] had an IC50 of 48 nM.

Take `O=C(NC1CCCCC1)C(=O)C1CCCN1C(=O)c1ccc(Cn2ccnc2)cc1` (stereo not drawn) [Example 88]: the IC50 is 132 nM. Compared with the last molecule, the IC50 is about 2.8-fold higher.
